Laboratory results published in patent US12109224B2, “USB1 directed regulation of miRNAs related hematopoietic differentiation and affected in multiple forms of leukemia” (The Regents of the University of Colorado, a body corporate, priority 2020, dated 2024).

How the values were obtained:
Assay type in all cases: cell-based, human
USB1 mutant cells [1] = experiment: Colony forming culture (CFC) assay of definitive hematopoietic progenitors; conditions: chemical inhibition of PAPD5; RG7834 0.5 μM vs DMSO; FIG. 4E
Procedure: (§1) Hematopoietic differentiation: Definitive hematopoietic differentiation from hESCs was performed as previously described (14). Briefly, hESCs were cultured on Matrigel (BD Bioscience) for 1 day to deplete MEFs. On Day 0, cells were dissociated with 0.05% trypsin (Gibco) for 1 min and incubated with serumfree media [SFD: IMDM supplemented with 25% Hams F12, 0.05% BSA, 1× B27 supplement (Gibco), 0.5× N2 supplement (Gibco), 2 mM L-glutamine (Gibco), 50 μg/ml ascorbic acid (Gibco), 4×10−4 M monothioglycerol (Millipore Sigma), and 150 μg/ml transferrin] supplemented with 10 ng/ml BMP4 on 6 well plates coated with a 5% poly(2-hydroxyethyl methacrylate) solution (Millipore Sigma). On Day 1, one additional volume of SFD was added, containing 10 ng/ml BMP4 and 5 ng/ml bFGF. On Day 2, media was changed to fresh SFD supplemented with 10 ng/ml BMP4, 5 ng/ml bFGF, 3 μM CHIR99021, and 6 μM SB-431542. On Day 3, media was changed to StemPro-34 media [SP-34: StemPro-34 supplemented with 2 mM L-glutamine (Gibco), 1 mM ascorbic acid (Gibco), 4×10−4M monothioglycerol, 150 μg/ml transferrin] supplemented with 15 ng/ml VEGF and 5 ng/ml bFGF. On Day 6, one additional volume of SP-34 supplemented with 15 ng/ml VEGF, 5 ng/ml bFGF, 20 ng/ml IL-6, 50 ng/ml IGF1, 10 ng/ml IL-11, 200 ng/ml SCF, and 4 IU EPO was added. […]

USB1 mutant cells [2] = experiment: miRNA levels by qRT-PCR in USB1 mutant cells; conditions: normalized to 5s rRNA; RG7834 (104) vs DMSO; FIG. 4A
USB1 mutant cells [3] = experiment: Flow cytometry following neutrophil differentiation; conditions: CD45+CD14-CD11b+CD16 cells; FIG. 4F
Procedure: Flow cytometry and Cell sorting: Flow cytometry analysis was performed using the BD LSR Fortessa and FACS sorting by BD FACS Aria II at the Department of Pathology & Immunology Flow Cytometry Core at Washington University in St. Louis. The antibodies were used as follows; KDR (clone 89106), CD235a-APC (clone HIR2), CD34-APC (clone 8G12), CD34-PE-Cy7 (clone 4H11), CD43-PE or -FITC (clone 1G10), CD73-PE (clone AD2), CD184-APC (clone 12G5), CD45-PE (clone HI30), CD14-PE Cy7 (clone MφP9), CD15-BV421 (W6D3), CD66b-FITC (clone G10F5). All antibodies were purchased from BD Biosciences, but CD15 and CD66b were obtained from BioLegend. For cell cycle analysis, Click-iT EdU Alexa Fluor 488 kit (Life Technologies) was used following manufacturer's instructions.

[4] = system: undifferentiated USB1 mutant cells; experiment: 3′ end sequencing of miR-125a-5p in undifferentiated USB1 mutant cells; conditions: RG7834 1 μM, FIG. 4B
Procedure: 3′ end library preparation and analysis: 3′ end libraries were prepared as previously described (23, 41). Briefly, 30 ng of DNA-free rRNA-depleted RNA was treated with Antarctic Phosphatase (NEB), and two RNA appendices containing a unique barcode were ligated to equal amount of the input RNA using T4 RNA Ligase I (NEB). Reactions were cleaned up using RNA clean & concentrator kit (Zymo Research) and cDNA was prepared using an RNA appendix-specific primer and Superscript III RT (Invitrogen). cDNA was used as a template for […] using a miRNA-specific reverse primer containing a barcode, a universal primer and Phusion HF DNA polymerase (NEB). RACE products were separated on a 1% Agarose TAE gel, 100-180 bp DNA fragments were excised and DNA was eluted. Illumina-compatible libraries were prepared by amplifying RACE product using Illumina primers, and sequenced on a HiSeq lane (Illumina) using the 2×150 kit. Libraries were demultiplexed and unique reads aligning to the exact miRNA sequence were quantified. miRNA 3′ ends were obtained from miRbase v22.

[5] = system: USB1 c.531delA CD34+/CD45+ cells; experiment: Flow cytometry of hematopoietic CD34+/CD45+ progenitor cells; conditions: RG7834 0.5 μM; FIG. 10B
Procedure: as §1

COCCCOc1cc2c(cc1OC)-c1cc(=O)c(C(=O)O)cn1[C@H](C(C)C)C2 [RG7834]
colony-formation potential in USB1 mutants (USB1 mutant cells [1]): rescued | levels of miRNAs that were reduced in USB1 mutant cells (USB1 mutant cells [2]): rescued | neutrophil formation in USB1 mutant cells (USB1 mutant cells [3]): improved | non-adenylated form of miR-125a-5p [4]: increase | oligoadenylated miR-125a-5p [4]: decrease | hematopoietic CD34+/CD45+ progenitor cells [5]: increase
